According to article PMC7251097, “Aspartate/asparagine-β-hydroxylase: a high-throughput mass spectrometric assay for discovery of small molecule inhibitors” (Scientific Reports, 2020):
“And” between values parts separate entries of the source, which are not always exact repeats. Identical values can stand only once. Counter-ions that a name gives are not always drawn. Like-named read-outs stand apart in the source and are kept apart here.

Target: T1, His6-AspH315–758 (human aspartate/asparagine-β-hydroxylase, AspH) (Homo sapiens, UniProt Q12797)
T1 construct: N-Terminally His6-tagged human AspH315–758 (His6-AspH315–758) was produced in E. coli BL21 (DE3) cells; made in house; host or cells: E. coli BL21 (DE3), pET-28a(+) vector
T1 sequence (Q12797 315-758): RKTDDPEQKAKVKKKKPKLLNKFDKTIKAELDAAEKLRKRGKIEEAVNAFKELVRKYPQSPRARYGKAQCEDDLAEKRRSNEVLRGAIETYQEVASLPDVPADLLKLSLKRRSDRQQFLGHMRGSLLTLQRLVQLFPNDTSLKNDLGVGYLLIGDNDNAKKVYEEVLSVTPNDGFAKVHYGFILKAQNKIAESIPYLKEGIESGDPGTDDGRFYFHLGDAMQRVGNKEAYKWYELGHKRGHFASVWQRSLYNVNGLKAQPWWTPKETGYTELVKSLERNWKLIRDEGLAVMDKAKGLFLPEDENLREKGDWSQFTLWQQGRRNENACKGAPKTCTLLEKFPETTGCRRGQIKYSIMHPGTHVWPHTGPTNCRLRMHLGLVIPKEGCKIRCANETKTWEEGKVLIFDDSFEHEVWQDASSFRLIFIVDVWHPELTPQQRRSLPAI
Assay: SPE-MS AspH inhibition assay (LOPAC screen at fixed 20 μM and IC50 dose-response), hydroxylation of cyclic peptide hFX-CP101–119
Assay type: biochemical

[1] = LOPAC compound at fixed 20 uM, plate 1, normalised to DMSO and 2,4-PDCA controls
[2] = LOPAC compound at fixed 20 uM, substrate conversion, plate 1
[3] = LOPAC compound at 20uM, plate 2, conversion of substrate peptide
[4] = LOPAC compound at 20uM, plate 2, normalised to DMSO and 2,4-PDCA controls
[5] = LOPAC Plate 4, compound at 20 uM, substrate conversion
[6] = LOPAC compound at 20uM, plate 3, conversion of substrate peptide
[7] = LOPAC Plate 4, compound at 20 uM
[8] = read-out: Plate 2 (% inhibition)
[9] = LOPAC compound at 20uM, plate 2, normalised to DMSO and 2,4-PDCA controls, read-out: Plate 2 (% inhibition)

N[C@@H]1CONC1=O (racemic) [DL-Cycloserine]
Plate 1 (% inhibition) [1]: -17.16% | Plate 1 (% conversion) [2]: 41.64%

O=C(O)CNC(=O)C(CS)Cc1ccccc1 (racemic) [DL-Thiorphan]
% conversion: 36.55% | inhibition at 20 µM: -0.22%

CC(N)(Cc1ccc(O)cc1)C(=O)O (racemic) [DL-alpha-Methyl-p-tyrosine]
Plate 1 (% conversion): 33.46% | Plate 1 (% inhibition): 7.19%

CCCCCCCCCCCCCCC[C@H](O)[C@H](N)CO (racemic) [DL-erythro-Dihydrosphingosine]
Plate 2 (% conversion) [3]: 62.82% | Plate 2 (% inhibition) [4]: -80.23%

CCN1CCC[C@H]1CNC(=O)c1c(O)c(Cl)cc(Cl)c1OC.O=C(O)C(O)C(O)C(=O)O (racemic) [S(+)-Raclopride L-tartrate]
% conversion [5]: 11.56%

CN(C)C[C@H](O)Cn1c2ccc(Br)cc2c2cc(Br)ccc21 (racemic) [Wiskostatin]
% conversion [5]: 31.93%

Br.CCCN1CCC2c3cc(O)ccc3CCC21 (racemic) [cis(+/-)-8-OH-PBZI hydrobromide]
Plate 3 (% conversion) [6]: 33.20%

CC(C)(C)c1cc(C(C)(C)C)c2c(c1)C(O)(C(F)(F)F)C(=O)O2 (racemic) [rac BHFF]
% inhibition [7]: 72.02% | % conversion [5]: 11.89%

COc1ccc2c(c1OC)C(=O)OC2C1c2cc3c(cc2CCN1C)OCO3 (single isomer, unassigned; (+)) [(+)-Hydrastine]
Plate 2 (% conversion): 38.28% | inhibition at 20 µM [8]: -6.94%

CC(N)Cc1cccc(C(F)(F)F)c1.Cl (single isomer, unassigned; (+)) [(+)-Norfenfluramine hydrochloride]
% conversion: 26.61%

CC(C)NCC(O)c1ccc(O)c(O)c1.Cl (single isomer, unassigned; (-)) [(-)-Isoproterenol hydrochloride]
Plate 3 (% conversion) [6]: 6.03%

Br.CN1[C@@H]2CC(OC(=O)[C@H](CO)c3ccccc3)C[C@H]1[C@@H]1O[C@@H]12 (single isomer, unassigned; (-)) [(-)-Scopolamine hydrobromide]
% inhibition (20 µM): -9.71%

C[N+]1(C)[C@@H]2CC(OC(=O)[C@H](CO)c3ccccc3)C[C@H]1[C@@H]1O[C@@H]12.O=[N+]([O-])[O-] (single isomer, unassigned; (-)) [(-)-Scopolamine methyl nitrate]
% conversion: 25.39%

CC(N)C(O)c1ccc(O)c(O)c1 (single isomer, unassigned; (-)) [(-)-alpha-Methylnorepinephrine]
Plate 2 (% conversion): 7.36% | Plate 2 (% inhibition) (20 µM): 85.40%

Nc1nc(Cl)nc2c1ncn2[C@@H]1O[C@H](COP(=O)(O)OP(=O)(O)OP(=O)(O)O)C(O)C1O (stereo in doubt)
Plate 2 (% conversion) [3]: 11.93% | Plate 2 (% inhibition) [4]: 71.75%

Nc1ncnc2c1nc(Sc1ccc(Cl)cc1)n2C1OC2COP(=O)(O)OC2C1O (stereo in doubt) [8-(4-Chlorophenylthio)-cAMP sodium]
Plate 1 (% inhibition) [1]: -2.91% | Plate 1 (% conversion) [2]: 36.85%

CCCCC1(C2CCCC2)Cc2cc(OCC(=O)O)c(Cl)c(Cl)c2C1=O (stereo in doubt) [R(+)-Butylindazone]
Plate 2 (% conversion) [3]: 33.18% | Plate 2 (% inhibition) [4]: 8.29%

Cn1c(=O)c2[nH]c(-c3ccccc3)nc2n(C)c1=O [1,3-Dimethyl-8-phenylxanthine]
Plate 3 (% conversion) [6]: 35.64%

CCCn1c(=O)c2[nH]c(-c3ccc(S(=O)(=O)O)cc3)nc2n(CCC)c1=O [1,3-Dipropyl-8-p-sulfophenylxanthine]
Plate 1 (% inhibition) [1]: -2.36% | Plate 1 (% conversion) [2]: 36.66%

OC[C@H]1NC[C@@H](O)[C@@H]1O [1,4-Dideoxy-1,4-imino-D-arabinitol]
Plate 2 (% conversion) [3]: 35.43% | Plate 2 (% inhibition) [4]: 1.56%

Oc1cccc2c(O)nccc12 [1,5-Isoquinolinediol]
Plate 3 (% conversion) [6]: 40.11%

Cn1c(=O)[nH]c2ncn(C)c2c1=O [1,7-Dimethylxanthine]
Plate 2 (% conversion) [3]: 35.50% | inhibition at 20 µM [9]: 1.36%

NCCCCCCCCCCN [1,10-Diaminodecane]
Plate 2 (% conversion) [3]: 36.39% | inhibition at 20 µM [9]: -1.3%

O.c1cnc2c(c1)ccc1cccnc12 [1,10-Phenanthroline monohydrate, reference compound]
% conversion: 3.10% | inhibition at 20 µM: 97.8% | inhibition at 20 µM (read-out: Inhibition at 20 µM [%]): 97.8%

Cl.c1ccc2c(N3CCNCC3)cccc2c1 [1-(1-Naphthyl)piperazine hydrochloride]
% conversion: 30.74%

Nn1nnc2ccccc21 [1-Aminobenzotriazole]
Plate 1 (% inhibition) [1]: -4.79% | Plate 1 (% conversion) [2]: 37.48%

OC[C@H]1NC[C@H](O)[C@@H](O)[C@@H]1O [1-Deoxynojirimycin hydrochloride]
inhibition at 20 µM [8]: 2.25%

Cl.Cl.Cn1cnc(CCN)c1 [1-Methylhistamine dihydrochloride]
Plate 3 (% conversion): 37.48%

Cn1ccnc1 [1-Methylimidazole]
Plate 3 (% conversion): 20.25%

S=C(Nc1ccccc1)Nc1nccs1 [1-Phenyl-3-(2-thiazolyl)-2-thiourea]
Plate 3 (% conversion): 40.98%

N=C(N)NC(=N)Nc1ccccc1 [1-Phenylbiguanide]
% inhibition [7]: 12.13% | % conversion [5]: 32.33%

FC(F)(F)c1ccccc1-n1ccnc1 [1-[2-(Trifluoromethyl)phenyl]imidazole]
% conversion [5]: 26.55%

c1ccc(-c2ccccn2)nc1 [2,2-Bipyridyl]
Plate 2 (% conversion): 27.94% | Plate 2 (% inhibition) (20 µM): 23.93%

CC(=O)C(C)=NO [2,3-Butanedione monoxime]
Plate 1 (% inhibition) [1]: -3.18% | Plate 1 (% conversion) [2]: 36.94%

CC(=O)C(C)=O [2,3-Butanedione]
Plate 2 (% conversion) [3]: 38.17% | inhibition at 20 µM [9]: -6.62%

COC1=C(OC)C(=O)c2ccccc2C1=O [2,3-Dimethoxy-1,4-naphthoquinone]
Plate 2 (% conversion): 33.76% | Plate 2 (% inhibition) (20 µM): 6.56%

Nc1ccn([C@H]2CC[C@@H](CO)O2)c(=O)n1 [2,3-dideoxycytidine]
Plate 2 (% conversion) [3]: 37.68% | Plate 2 (% inhibition) [4]: -5.15%

O=C(O)c1ccnc(C(=O)O)c1 [2,4-pyridinedicarboxylic acid]
Plate 2 (% inhibition) (100 uM 2,4-PDCA control wells (columns 1, 2), plate 2): 100.30% and 100.62% and 100.70% | % inhibition (LOPAC Plate 3, 100 uM 2,4-PDCA control wells (columns 1, 2)): 99.57% and 99.80% | Plate 1 (% inhibition) (plate 1): 100.60% and 99.95% and 100.29% | Plate 5 (% conversion), 2,4-PDCA control (plate 5, 100 uM 2,4-PDCA controls, plate columns 1, 2): 2.34%

Nc1nc(Cl)nc2c1ncn2[C@@H]1O[C@H](CO)[C@@H](O)[C@H]1O [2-Chloroadenosine]
Plate 1 (% inhibition) [1]: -4.87% | Plate 1 (% conversion) [2]: 37.51%

NCC(O)(CS(=O)(=O)O)c1ccc(Cl)cc1 (centres unmarked) [2-Hydroxysaclofen]
Plate 1 (% inhibition) [1]: -6.82% | Plate 1 (% conversion) [2]: 38.16%

Cc1[nH]c2ccc(O)cc2c1CCN.O=C(O)/C=C\C(=O)O [2-Methyl-5-hydroxytryptamine maleate]
Plate 3 (% conversion): 35.71%

Nc1nc(Nc2ccccc2)nc2c1ncn2[C@@H]1O[C@H](CO)[C@@H](O)[C@H]1O [2-Phenylaminoadenosine]
% inhibition [7]: -10.62% | % conversion [5]: 40.09%

COc1cc2c(cc1O)CC[C@@H]1[C@@H]2CC[C@]2(C)[C@@H](O)CC[C@@H]12 [2-methoxyestradiol]
Plate 3 (% conversion) [6]: 41.59%

O=c1oc(Cl)c(Cl)c2ccccc12 [3,4-Dichloroisocoumarin]
Plate 2 (% conversion): 29.65% | Plate 2 (% inhibition) [4]: 18.85%

O=C(O)Cc1ccc(O)c(O)c1 [3,4-Dihydroxyphenylacetic acid, reference compound]
inhibition at 20 µM (AspH activity, fixed compound concentration 20 μM, initial LOPAC screen, 0.5%v/v DMSO, read-out: Inhibition at 20 µM [%]): 98.6%

O=[N+]([O-])c1cc(O)c(O)c([N+](=O)[O-])c1 [3,5-Dinitrocatechol, reference compound]
Plate 2 (% conversion): 2.07% | Plate 2 (% inhibition) (20 µM): 101.20%

NCCCS(=O)(=O)O.[Na] [3-Amino-1-propanesulfonic acid sodium]
Plate 1 (% inhibition) [1]: -7.08% | Plate 1 (% conversion) [2]: 38.25%

N#CCCN.N#CCCN.O=C(O)/C=C/C(=O)O [3-Aminopropionitrile fumarate]
Plate 1 (% inhibition) [1]: 48.97% | Plate 1 (% conversion) [2]: 19.43%

NCCCP(=O)(O)O [3-Aminopropylphosphonic acid]
Plate 1 (% conversion): 37.53% | Plate 1 (% inhibition): -4.94%

Cc1cn([C@H]2C[C@H](N=[N+]=[N-])[C@@H](CO)O2)c(=O)[nH]c1=O [3-Azido-3-deoxythymidine]
Plate 1 (% inhibition) [1]: -7.24% | Plate 1 (% conversion) [2]: 38.30%

O=[N+]([O-])c1cccc2c(Br)n[nH]c12 [3-Bromo-7-nitroindazole]
Plate 1 (% inhibition) [1]: 1.81% | Plate 1 (% conversion) [2]: 35.26%

N[C@@H](Cc1ccc(O)c(I)c1)C(=O)O [3-Iodo-L-tyrosine]
Plate 3 (% conversion) [6]: 30.44%

CC(C)Cn1c(=O)n(C)c(=O)c2[nH]cnc21 [3-Isobutyl-1-methylxanthine]
Plate 3 (% conversion): 38.13%
